# Experimental data as given in article PMC6792352, “Limited Chemical Structural Diversity Found to Modulate Thyroid Hormone Receptor in the Tox21 Chemical Library” (Environmental Health Perspectives, 2019).
# Structures can show the parent of a compound that is named as a salt.
# Experiment: in vitro
# Settings: rat, gh3-tre-luc cells, AC50 (uM) modified / 1000
row,Compound,CC50 at 24 h [µM]
1,Nc1ccc(S(=O)(=O)Nc2ccccc2)cc1 [Sulfabenz],> 50
2,CCCCOCCOC(C)=O [2-Butoxyethyl acetate],> 90
3,CCCCCCCCCCCC(=O)O [Dodecanoic acid],> 90
4,CCOCC(=O)O [Ethoxyacetic acid],> 90
5,CO[C@@H]1[C@@H](OC(N)=O)[C@@H](O)[C@H](Oc2ccc3c(O)c(NC(=O)c4ccc(O)c(CC=C(C)C)c4)c(=O)oc3c2C)OC1(C)C [Novobiocin sodium],> 20
6,"CC1=NN(c2cccc(S(=O)(=O)O)c2)C(=O)C1 [3-(3-Methyl-5-oxo-4,5-dihydro-1H-pyrazol-1-yl)benzenesulfonic acid]",> 90
7,NCC(O)c1cccc(O)c1 (stereo not drawn) [Norfenefrine hydrochloride],> 50
8,CCCCCC(C)O (stereo not drawn) [2-Heptanol],> 90
9,"OCCCCCCO [1,6-Hexanediol]",> 90
10,O=C(O)c1cn(-c2ccc(F)cc2)c2cc(N3CCNCC3)c(F)cc2c1=O [Sarafloxacin hydrochloride],> 50
11,O=C(O)CCn1c2c(c3ccccc31)C[C@H](NS(=O)(=O)c1ccc(F)cc1)CC2 [Ramatroban],> 50
12,"CC(C)(CO)COC(=O)C(C)(C)CO [3-Hydroxy-2,2-dimethylpropyl 3-hydroxy-2,2-dimethylpropanoate]",> 90
13,CCCCNC(=N)NC(=N)N [Buformin],> 50
14,"Oc1ccc(C2(c3ccc(O)cc3)c3ccccc3-c3ccccc32)cc1 [4,4'-(9H-Fluorene-9,9-diyl)diphenol]",28.7
15,Cc1cccc2nccnc12 [5-Methylquinoxaline],> 90
16,"C[C@@H](O)C[C@@H](C)O [2,4-Pentanediol]",> 90
17,Oc1ccc2c(c1)OCO2 [Sesamol],> 90
18,CCN(CC)CCNC(=O)COc1ccc(OC)cc1 [Mefexamide hydrochloride],> 50
19,"O=C1CCCc2c1cc1ccc3cccc4ccc2c1c34 [9,10-Dihydrobenzo[a]pyren-7(8H)-one]",> 90
20,O=CCCl [Chloroacetaldehyde],> 90
21,CC(=O)C1C(=O)C=C(C)OC1=O (stereo not drawn) [Dehydroacetic acid],> 90
22,C[C@H]1CC[C@]2(NC1)O[C@H]1C[C@H]3[C@@H]4CC[C@H]5C[C@@H](O)CC[C@]5(C)[C@H]4CC[C@]3(C)[C@H]1[C@@H]2C [Tomatidine hydrochloride],47
23,O=C(Cl)c1cccc([N+](=O)[O-])c1 [3-Nitrobenzoyl chloride],> 90
24,CN1C(C(=O)Nc2ccccn2)=C(O)c2sc(Cl)cc2S1(=O)=O [Lornoxicam],> 50
25,CC(C)(O)C(=O)c1ccc(OCCO)cc1 [2-Hydroxy-1-[4-(2-hydroxyethoxy)phenyl]-2-methylpropan-1-one],> 90

row,Compound,CC50 at 24 h [µM]
1,Cn1cc[n+](CCO)c1 [1-(2-Hydroxyethyl)-3-methylimidazolium chloride],> 90
2,CN1CCCN=C1/C=C/c1cccs1 [Pyrantel tartrate],> 50
3,"CC(C)CC(O)CC(C)C [2,6-Dimethyl-4-heptanol]",> 90
4,CS(=O)(=O)c1ccc(C2=C(c3ccccc3)C(=O)OC2)cc1 [Rofecoxib],> 50
5,C[C@]12C[C@H](O)[C@H]3[C@@H](CCC4=CC(=O)CC[C@@]43C)[C@@H]1CC[C@@H]2C(=O)CO [Corticosterone],> 90
6,Cc1cc(C(=O)NNCc2ccccc2)no1 [Isocarboxazid],> 20
7,O=C1NCN(c2ccccc2)C12CCN(CCCC(c1ccc(F)cc1)c1ccc(F)cc1)CC2 [Fluspirilene],4.02
8,CCOC(=O)[C@H](CCc1ccccc1)N[C@H]1CCCN2CCC[C@@H](C(=O)O)N2C1=O [Cilazapril],> 50
9,O=C(O)CN(CC(=O)O)CC(=O)O [Nitrilotriacetic acid],> 90
10,CC1=C(C=O)C(C)(C)CC=C1 [Safranal],> 100
11,CCCCCCC(CO)CCCC (stereo not drawn) [2-Butyloctan-1-ol],> 90
12,c1ccc2c(c1)-c1cccc3cccc-2c13 [Fluoranthene],> 90
13,"COC(C)(OC)OC [1,1,1-Trimethoxyethane]",> 90
14,CC1(C(=O)Nc2ccc(O)c(Cl)c2Cl)CCCCC1 [Fenhexamid],76.7
15,CC(C)N1C(=O)c2ccccc2C1=O [N-Isopropylphthalimide],> 90
16,O=C1c2cccc3c2[C@H](CCC3)CN1[C@@H]1CN2CCC1CC2 [Palonosetron hydrochloride],23.5
17,Nc1nc2ccccc2[nH]1 [2-Aminobenzimidazole],> 90
18,Cc1ccccc1S(=O)(=O)O [Sodium 2-methylbenzenesulfonate],> 100
19,COc1ccc(C)cc1[N+](=O)[O-] [1-Methoxy-4-methyl-2-nitrobenzene],> 90
20,c1ccc(-c2ccc(C(c3ccccc3)n3ccnc3)cc2)cc1 (stereo not drawn) [Bifonazole],45.2
21,CC(=O)c1cccnc1 [3-Acetylpyridine],> 90
22,COC(=O)CCC(=O)CN [Methyl aminolevulinate hydrochloride],> 50
23,O=C(Nc1ccccc1)c1ccccc1O [Salicylanilide],> 90
24,NS(=O)(=O)c1cc(Cl)c(Cl)c(S(N)(=O)=O)c1 [Dichlorphenamide],> 20
25,C=CCCCCCCCCC(=O)OCCCC [Butyl undec-10-enoate],> 90

row,Compound,CC50 at 24 h [µM]
1,C=CCCC [1-Pentene],> 90
2,OCCN(CCO)c1nc(N2CCCCC2)c2nc(N(CCO)CCO)nc(N3CCCCC3)c2n1 [Dipyridamole],> 50
3,CSCC[C@H](NC(=O)[C@H](Cc1ccc(OS(=O)(=O)O)cc1)NC(=O)[C@@H](N)CC(=O)O)C(=O)NCC(=O)N[C@@H](Cc1c[nH]c2ccccc12)C(=O)N[C@@H](CCSC)C(=O)N[C@@H](CC(=O)O)C(=O)N[C@@H](Cc1ccccc1)C(N)=O [Sincalide],> 50
4,CC(O)(P(=O)(O)O)P(=O)(O)O [Etidronic acid],> 90
5,Cc1cc(Cl)ccc1O [4-Chloro-2-methylphenol],> 90
6,CCOc1cccc(N)c1 [3-Ethoxyaniline],> 90
7,"OCC(F)(F)F [2,2,2-Trifluoroethanol]",> 100
8,"Clc1nnc(Cl)c2ccccc12 [1,4-Dichlorophthalazine]",> 90
9,"CCOC(=O)CC1(C)OCC(C)O1 (stereo not drawn) [Ethyl 2,4-dimethyl-1,3-dioxolane-2-acetate]",> 90
10,CC(C)=CCC/C(C)=C/CC/C(C)=C/CC/C(C)=C/CC1=C(C)C(=O)c2ccccc2C1=O [Menatetrenone],> 50
11,Cc1ccc(O)c([C@H](CCN(C(C)C)C(C)C)c2ccccc2)c1 [Tolterodine],18.9
12,"CCOC(=O)C(C#N)=C(c1ccccc1)c1ccccc1 [Ethyl 2-cyano-3,3-diphenylacrylate]",> 90
13,CCOC(=O)[C@H](CCc1ccccc1)N[C@@H](C)C(=O)N1Cc2ccccc2C[C@H]1C(=O)O [Quinapril hydrochloride],> 90
14,CCCOc1sc(C(=O)N2CCC(c3cc(CN)ccc3F)CC2)c(C)c1Br [AVE8923],3.52
15,"Sc1nnc(S)s1 [2,5-Dimercapto-1,3,4-thiadiazole]",> 90
16,"CN(C)Cc1cc(C(C)(C)C)c(O)c(C(C)(C)C)c1 [2,6-Di-tert-butyl-4-[(dimethylamino)methyl]phenol]",50.7
17,"C=COCCOCCOCCOC=C [3,6,9,12-Tetraoxatetradeca-1,13-diene]",> 90
18,Cc1cc(O)cc2c1O[C@](C)(CCC[C@H](C)CCC[C@H](C)CCCC(C)C)CC2 [D-delta-Tocopherol],> 50
19,COC(C)(C)CCO [3-Methoxy-3-methylbutan-1-ol],> 90
20,CC[C@H]1OC(=O)C[C@@H](O)[C@H](C)[C@@H](O[C@@H]2O[C@H](C)[C@@H](O)[C@H](N(C)C)[C@H]2O)[C@@H](CCN2C[C@H](C)C[C@H](C)C2)C[C@@H](C)C(=O)/C=C/C(C)=C/[C@@H]1CO[C@@H]1O[C@H](C)[C@@H](O)[C@@H](OC)[C@H]1OC [Tilmicosin],> 50
21,O=C(CCCN1CC=C(n2c(=O)[nH]c3ccccc32)CC1)c1ccc(F)cc1 [Droperidol],> 50
22,CN(C)CCCN1c2ccccc2C(C)(C)c2ccccc21 [Dimetacrine],14.8
23,CN(C)C(=O)Oc1ccc[n+](C)c1 [Pyridostigmine bromide],> 50

# Same assay, conditions: rat, gh3-tre-luc cells, AC50 (uM) modified / 1000, Tox21_110001=Tox21_112600; viability, 1 nM T3 present, 24 h
row,Compound,CC50 at 24 h [µM]
1,CCCCCCC(=O)O[C@H]1CC[C@H]2[C@@H]3CC[C@H]4CC(=O)C=C(C)[C@]4(C)[C@H]3CC[C@]12C [Methenolone enanthate],> 50

# Same assay, conditions: rat, gh3-tre-luc cells, AC50 (uM) modified / 1000, Tox21_110001=Tox21_112834; viability, 1 nM T3 present, 24 h
row,Compound,CC50 at 24 h [µM]
1,C[C@@H]1[C@@H]2Cc3ccc(O)cc3[C@@]1(C)CCN2CCc1ccccc1 [(+)-Phenazocine hydrobromide],67.4

# Same assay, conditions: rat, gh3-tre-luc cells, AC50 (uM) modified / 1000, Tox21_110001=Tox21_200121; viability, 1 nM T3 present, 24 h
row,Compound,CC50 at 24 h [µM]
1,Brc1cccc(-c2ccccc2)c1 [3-Bromobiphenyl],> 90

# Same assay, conditions: rat, gh3-tre-luc cells, AC50 (uM) modified / 1000, Tox21_110001=Tox21_201491; viability, 1 nM T3 present, 24 h
row,Compound,CC50 at 24 h [µM]
1,CCCCC(CC)COC(=O)Cl (stereo not drawn) [2-Ethylhexyl chloroformate],> 90

# Same assay, conditions: rat, gh3-tre-luc cells, AC50 (uM) modified / 1000, Tox21_110001=Tox21_202076; viability, 1 nM T3 present, 24 h
row,Compound,CC50 at 24 h [µM]
1,C=CC#N [Acrylonitrile],> 100

# Same assay, conditions: rat, gh3-tre-luc cells, AC50 (uM) modified / 1000, Tox21_110001=Tox21_300420; viability, 1 nM T3 present, 24 h
row,Compound,CC50 at 24 h [µM]
1,O=C(Nc1ccccc1)c1ccccc1I [Benodanil],> 90

# Same assay, conditions: rat, gh3-tre-luc cells, AC50 (uM) modified / 1000, Tox21_110001=Tox21_301761; viability, 1 nM T3 present, 24 h
row,Compound,CC50 at 24 h [µM]
1,CC(C)CP(=S)(S)CC(C)C [Sodium bis(2-methylpropyl)phosphinodithioate],> 90

# Same assay, conditions: rat, gh3-tre-luc cells, AC50 (uM) modified / 1000, Tox21_110001=Tox21_302951; viability, 1 nM T3 present, 24 h
row,Compound,CC50 at 24 h [µM]
1,C=CC#N [Acrylonitrile],> 90
